# ± gives the standard deviation of the averaged measurements.
# Test system: HCI-003.E2 (organoid from an ER-positive breast cancer xenograft)
# Assay: CTG-3D luminescence at 96 h relative to day-0 seeding control (ratio to day 0); higher = more growth / less cytotoxicity; PDxO 3D drug screen (set 2), 96 h, CTG-3D normalised to day-0 seeding control.
# Settings: 12.5 pM
row,SMILES,CTG-3D luminescence at 96 h
1,CCOc1ccn(-c2ccc(F)cc2)c(=O)c1C(=O)Nc1ccc(Oc2ccnc(N)c2Cl)c(F)c1 [ASLAN002],2.68 ± 0.54
2,C[C@@H](Nc1cc(F)cc(F)c1)c1cc(C(=O)N(C)C)cc2c(=O)cc(N3CCOCC3)oc12 [AZD-8186],2.53 ± 0.33
3,COc1cccc2c1C(=O)c1c(O)c3c(c(O)c1C2=O)C[C@@](O)(C(=O)CO)C[C@@H]3O[C@H]1C[C@H](N)[C@@H](O)[C@H](C)O1 [epirubicin],2.55 ± 0.54
4,CC(=O)c1c(C)c2cnc(Nc3ccc(N4CCNCC4)cn3)nc2n(C2CCCC2)c1=O [palbociclib],2.52 ± 0.43
5,O=C(c1cc(Cc2n[nH]c(=O)c3ccccc23)ccc1F)N1CCN(C(=O)C2CC2)CC1 [olaparib],2.72 ± 0.58

# Same assay, conditions: 0.00025 µM
row,SMILES,CTG-3D luminescence at 96 h
1,CCOc1ccn(-c2ccc(F)cc2)c(=O)c1C(=O)Nc1ccc(Oc2ccnc(N)c2Cl)c(F)c1 [ASLAN002],2.58 ± 0.47
2,C[C@@H](Nc1cc(F)cc(F)c1)c1cc(C(=O)N(C)C)cc2c(=O)cc(N3CCOCC3)oc12 [AZD-8186],2.56 ± 0.38
3,COc1cccc2c1C(=O)c1c(O)c3c(c(O)c1C2=O)C[C@@](O)(C(=O)CO)C[C@@H]3O[C@H]1C[C@H](N)[C@@H](O)[C@H](C)O1 [epirubicin],2.48 ± 0.53
4,CC(=O)c1c(C)c2cnc(Nc3ccc(N4CCNCC4)cn3)nc2n(C2CCCC2)c1=O [palbociclib],2.44 ± 0.46
5,O=C(c1cc(Cc2n[nH]c(=O)c3ccccc23)ccc1F)N1CCN(C(=O)C2CC2)CC1 [olaparib],2.74 ± 0.85

# Same assay, conditions: 0.005 µM
row,SMILES,CTG-3D luminescence at 96 h
1,CCOc1ccn(-c2ccc(F)cc2)c(=O)c1C(=O)Nc1ccc(Oc2ccnc(N)c2Cl)c(F)c1 [ASLAN002],2.76 ± 0.83
2,C[C@@H](Nc1cc(F)cc(F)c1)c1cc(C(=O)N(C)C)cc2c(=O)cc(N3CCOCC3)oc12 [AZD-8186],2.18 ± 1.5
3,COc1cccc2c1C(=O)c1c(O)c3c(c(O)c1C2=O)C[C@@](O)(C(=O)CO)C[C@@H]3O[C@H]1C[C@H](N)[C@@H](O)[C@H](C)O1 [epirubicin],2.34 ± 0.65
4,CC(=O)c1c(C)c2cnc(Nc3ccc(N4CCNCC4)cn3)nc2n(C2CCCC2)c1=O [palbociclib],2.53 ± 0.76
5,O=C(c1cc(Cc2n[nH]c(=O)c3ccccc23)ccc1F)N1CCN(C(=O)C2CC2)CC1 [olaparib],2.72 ± 0.97

# Same assay, conditions: 0.1 µM
row,SMILES,CTG-3D luminescence at 96 h
1,CCOc1ccn(-c2ccc(F)cc2)c(=O)c1C(=O)Nc1ccc(Oc2ccnc(N)c2Cl)c(F)c1 [ASLAN002],2.78 ± 0.84
2,C[C@@H](Nc1cc(F)cc(F)c1)c1cc(C(=O)N(C)C)cc2c(=O)cc(N3CCOCC3)oc12 [AZD-8186],2.38 ± 0.2
3,COc1cccc2c1C(=O)c1c(O)c3c(c(O)c1C2=O)C[C@@](O)(C(=O)CO)C[C@@H]3O[C@H]1C[C@H](N)[C@@H](O)[C@H](C)O1 [epirubicin],2.23 ± 0.62
4,CC(=O)c1c(C)c2cnc(Nc3ccc(N4CCNCC4)cn3)nc2n(C2CCCC2)c1=O [palbociclib],2.82 ± 0.78
5,O=C(c1cc(Cc2n[nH]c(=O)c3ccccc23)ccc1F)N1CCN(C(=O)C2CC2)CC1 [olaparib],2.75 ± 0.72

# Same assay, conditions: 1 µM
row,SMILES,CTG-3D luminescence at 96 h
1,CCOc1ccn(-c2ccc(F)cc2)c(=O)c1C(=O)Nc1ccc(Oc2ccnc(N)c2Cl)c(F)c1 [ASLAN002],2.47 ± 0.26
2,C[C@@H](Nc1cc(F)cc(F)c1)c1cc(C(=O)N(C)C)cc2c(=O)cc(N3CCOCC3)oc12 [AZD-8186],2.13 ± 0.22
3,COc1cccc2c1C(=O)c1c(O)c3c(c(O)c1C2=O)C[C@@](O)(C(=O)CO)C[C@@H]3O[C@H]1C[C@H](N)[C@@H](O)[C@H](C)O1 [epirubicin],0.712 ± 0.21
4,CC(=O)c1c(C)c2cnc(Nc3ccc(N4CCNCC4)cn3)nc2n(C2CCCC2)c1=O [palbociclib],2.21 ± 0.33
5,O=C(c1cc(Cc2n[nH]c(=O)c3ccccc23)ccc1F)N1CCN(C(=O)C2CC2)CC1 [olaparib],2.24 ± 0.089

# Same assay, conditions: 10 µM
row,SMILES,CTG-3D luminescence at 96 h
1,CCOc1ccn(-c2ccc(F)cc2)c(=O)c1C(=O)Nc1ccc(Oc2ccnc(N)c2Cl)c(F)c1 [ASLAN002],1.97 ± 0.13
2,C[C@@H](Nc1cc(F)cc(F)c1)c1cc(C(=O)N(C)C)cc2c(=O)cc(N3CCOCC3)oc12 [AZD-8186],1.28 ± 0.26
3,COc1cccc2c1C(=O)c1c(O)c3c(c(O)c1C2=O)C[C@@](O)(C(=O)CO)C[C@@H]3O[C@H]1C[C@H](N)[C@@H](O)[C@H](C)O1 [epirubicin],0.0173 ± 0.0035
4,CC(=O)c1c(C)c2cnc(Nc3ccc(N4CCNCC4)cn3)nc2n(C2CCCC2)c1=O [palbociclib],1.92 ± 0.12
5,O=C(c1cc(Cc2n[nH]c(=O)c3ccccc23)ccc1F)N1CCN(C(=O)C2CC2)CC1 [olaparib],1.27 ± 0.25

# Same assay, conditions: 100 µM
row,SMILES,CTG-3D luminescence at 96 h
1,CCOc1ccn(-c2ccc(F)cc2)c(=O)c1C(=O)Nc1ccc(Oc2ccnc(N)c2Cl)c(F)c1 [ASLAN002],1.09 ± 0.32
2,C[C@@H](Nc1cc(F)cc(F)c1)c1cc(C(=O)N(C)C)cc2c(=O)cc(N3CCOCC3)oc12 [AZD-8186],0.0452 ± 0.0039
3,COc1cccc2c1C(=O)c1c(O)c3c(c(O)c1C2=O)C[C@@](O)(C(=O)CO)C[C@@H]3O[C@H]1C[C@H](N)[C@@H](O)[C@H](C)O1 [epirubicin],0.000274 ± 0.00038
4,CC(=O)c1c(C)c2cnc(Nc3ccc(N4CCNCC4)cn3)nc2n(C2CCCC2)c1=O [palbociclib],0.594 ± 0.47
5,O=C(c1cc(Cc2n[nH]c(=O)c3ccccc23)ccc1F)N1CCN(C(=O)C2CC2)CC1 [olaparib],0.0215 ± 0.0052

# Same assay, conditions: 625 fM
row,SMILES,CTG-3D luminescence at 96 h
1,CCOc1ccn(-c2ccc(F)cc2)c(=O)c1C(=O)Nc1ccc(Oc2ccnc(N)c2Cl)c(F)c1 [ASLAN002],2.78 ± 0.59
2,C[C@@H](Nc1cc(F)cc(F)c1)c1cc(C(=O)N(C)C)cc2c(=O)cc(N3CCOCC3)oc12 [AZD-8186],2.58 ± 0.6
3,COc1cccc2c1C(=O)c1c(O)c3c(c(O)c1C2=O)C[C@@](O)(C(=O)CO)C[C@@H]3O[C@H]1C[C@H](N)[C@@H](O)[C@H](C)O1 [epirubicin],3.06 ± 1.2
4,CC(=O)c1c(C)c2cnc(Nc3ccc(N4CCNCC4)cn3)nc2n(C2CCCC2)c1=O [palbociclib],2.88 ± 0.87
5,O=C(c1cc(Cc2n[nH]c(=O)c3ccccc23)ccc1F)N1CCN(C(=O)C2CC2)CC1 [olaparib],2.79 ± 0.81

# Source: the supplement of paper PMC8882468
